What is called inhibition is the drop in the measured response relative to a control, in per cent.

≈ marks a conversion by molar mass, not a printed value. Calls of active or inactive are those of the source. No cut-off for these calls is given here.

In one test the test system is Human alphaherpesvirus 1. The experiment in a line: Antiviral activity against HSV1 in african green monkey Vero cells at 320 ug/mL. The format is functional, organism-based.
For test [1], the system named is Candida albicans. Description: Antimicrobial activity against Candida albicans at 300 ug/mL after 24 hrs by disk diffusion method. It is filed as functional, organism-based. A general note: A growth-free zone around the sample is the usual read-out of agar diffusion tests.
For test [2], the system named is Staphylococcus aureus. Description: Antimicrobial activity against Staphylococcus aureus at 200 ug/mL after 24 hrs by disk diffusion method. It is filed as functional, organism-based.
For test [3], the target named is Acetylcholinesterase (Homo sapiens) (UniProt P22303). Description: Inhibition of acetylcholinesterase-mediated hydrolysis of acetylcholine at 0.8 mg/mL relative to galanthamine.
The next test deals with Potato virus X. The experiment in a line: Antiviral activity against Potato virus X in half leaf of Chenopodium quinoa at 9.3 mg/mL after 10 days. The format is functional. The conditions noted are these: 240 h.
In test [4] the test system is Staphylococcus aureus. Description: Antimicrobial activity against Staphylococcus aureus after 24 hrs by disk diffusion method. The format is functional.
Test [5] deals with Candida albicans. The experiment in a line: Antimicrobial activity against Candida albicans after 24 hrs by disk diffusion method. It is filed as functional.

Chain of Acetylcholinesterase (Homo sapiens) (P22303 whole entry): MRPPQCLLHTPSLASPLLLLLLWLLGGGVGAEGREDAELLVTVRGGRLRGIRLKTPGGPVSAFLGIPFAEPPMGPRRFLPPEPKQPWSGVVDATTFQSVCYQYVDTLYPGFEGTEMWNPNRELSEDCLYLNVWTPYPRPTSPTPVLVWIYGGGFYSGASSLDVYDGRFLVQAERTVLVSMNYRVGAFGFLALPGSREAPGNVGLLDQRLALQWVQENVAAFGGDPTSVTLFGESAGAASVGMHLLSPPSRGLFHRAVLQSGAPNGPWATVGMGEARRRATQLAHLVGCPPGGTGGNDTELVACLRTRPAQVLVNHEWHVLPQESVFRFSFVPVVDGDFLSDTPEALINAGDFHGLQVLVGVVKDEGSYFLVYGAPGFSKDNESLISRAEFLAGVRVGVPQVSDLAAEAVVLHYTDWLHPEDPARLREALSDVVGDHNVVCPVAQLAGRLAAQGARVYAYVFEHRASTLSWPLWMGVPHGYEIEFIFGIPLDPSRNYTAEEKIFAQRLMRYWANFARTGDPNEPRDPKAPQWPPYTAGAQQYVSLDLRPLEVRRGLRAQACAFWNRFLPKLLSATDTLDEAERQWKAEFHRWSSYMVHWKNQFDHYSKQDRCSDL

Regarding `COc1ccc(-c2c(C)c(C)cc3ccc(O)cc23)cc1`, the MIC entry with Human alphaherpesvirus 1, with Candida albicans [1] and in the test on Staphylococcus aureus [2] was “inactive” throughout. For the same compound, in test [3], the inhibition came to 67.6%. For the same compound, the inhibition at 9300 µg/mL in the test on Potato virus X was determined as 36%.

For `COc1ccc(CCC(=O)c2c(OC)cc(O)c([C@@H](c3ccc(O)cc3)[C@@H](C)[C@H](C)Cc3ccc(O)cc3)c2O)cc1` [IRYANTHERIN K], in the test on Candida albicans [1], the MIC entry is “inactive”. For the same compound, the MIC with Staphylococcus aureus [4] was 50 µg/mL (≈ 87.6 µM). In test [3], this compound displayed an inhibition of 77.4%. Moreover, in the test on Potato virus X, the inhibition at 9300 µg/mL turned out to be 89%.

In the case of `COc1ccc(CCC(=O)c2c(OC)cc(O)c([C@H](c3ccc(O)cc3)[C@@H](C)[C@H](C)Cc3ccc(O)cc3)c2O)cc1` [IRYANTHERIN L], the MIC result in the test with Human alphaherpesvirus 1, in the test on Candida albicans [1] and with Staphylococcus aureus [2] was “inactive” each time. The inhibition at 9300 µg/mL with Potato virus X came to 67%.

With `CCCCCCCC/C=C\CCCCCCCCCCCCCCCC[C@H]1C(=O)O[C@H](C)[C@@H]1O` [MEGISLACTONE], the MIC result in the test with Human alphaherpesvirus 1, with Candida albicans [1] and in the test on Staphylococcus aureus [2] was “inactive” each time. The inhibition at 9300 µg/mL in the test on Potato virus X came out at 20%.

In the case of `C[C@@H]1OC(=O)[C@@H](CCCCCCCCCCCCCCCCCc2ccccc2)[C@@H]1O` [GRANDINOLIDE], the MIC result in the test on Human alphaherpesvirus 1, in the test on Candida albicans [1] and in the test on Staphylococcus aureus [2] was “inactive” in each case. Moreover, at 9300 µg/mL the inhibition with Potato virus X was 30%.

With `O=c1c(O)c(-c2ccc(O)c(O)c2)oc2cc(O)cc(O)c12` [QUERCETIN], at 9300 µg/mL the inhibition in the test with Potato virus X was 100%.

`NC(=O)c1ncn([C@@H]2O[C@H](CO)[C@@H](O)[C@H]2O)n1` [RIBAVIRIN] gave an inhibition at 9300 µg/mL in the test on Potato virus X of 94%.

Turning to `O=C1C[C@H](c2ccc(O)c(O)c2)c2c(cc(O)c3c2O[C@H](c2ccc(O)c(O)c2)[C@H](O)[C@H]3c2c(O)cc(O)c3c2O[C@H](c2ccc(O)c(O)c2)[C@H](O)C3)O1` [CINCHONAIN IIA], the MIC result with Human alphaherpesvirus 1 and in the test on Staphylococcus aureus [2] was “inactive” throughout. This compound had an MIC against Candida albicans [5] of 150 µg/mL (≈ 203 µM). The same compound came in with an inhibition at 9300 µg/mL with Potato virus X of 100%.

Regarding `Oc1cc(O)c2c(c1)O[C@H](c1ccc(O)c(O)c1)[C@H](O)[C@H]2c1c(O)cc(O)c2c1O[C@H](c1ccc(O)c(O)c1)[C@H](O)C2` [PROCYANIDIN B2], the MIC with Staphylococcus aureus [4] was 100 µg/mL (≈ 173 µM); in the test with Candida albicans [5], 150 µg/mL (≈ 259 µM). In the test on Potato virus X, this compound gave an inhibition at 9300 µg/mL of 98%.
